“And” between values parts separate entries of the source, which are not always exact repeats. Equal values may be shown once. Inconclusive results and toxic doses are left out.
Tested on: P388 leukemia ip, CD2F1 mice, survival T/C
Assay: NCI In Vivo Anticancer Drug Screen. Data for tumor model P388 Leukemia (intraperitoneal) in CD2F1 (CDF1) mice
Settings: endpoint: median survival time, higher = longer survival
How it was run: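 Mice carrying the transplanted tumor received test compound or vehicle. Survival was recorded in each group, and the value is the treated-group measurement divided by that of the vehicle-treated control group.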

[1] = dose: 50.0 mg/kg/injection, schedule: Q01DX005 (ip), vehicle: saline with Tween-80
[2] = dose: 100.0 mg/kg/injection, schedule: Q01DX005 (ip), vehicle: saline with Tween-80
[3] = dose: 200.0 mg/kg/injection, schedule: Q01DX005 (ip), vehicle: saline with Tween-80
[4] = dose: 50.0 mg/kg/injection, schedule: Q01DX009 (ip), vehicle: saline with Tween-80
[5] = dose: 100.0 mg/kg/injection, schedule: Q01DX009 (ip), vehicle: saline with Tween-80
[6] = dose: 200.0 mg/kg/injection, schedule: Q01DX009 (ip), vehicle: saline with Tween-80
[7] = dose: 100.0 mg/kg/injection, schedule: Q01DX009 (ip), vehicle: saline
[8] = dose: 200.0 mg/kg/injection, schedule: Q01DX009 (ip), vehicle: saline
[9] = dose: 12.5 mg/kg/injection, schedule: Q01DX009 (ip), vehicle: saline with Tween-80
[10] = dose: 25.0 mg/kg/injection, schedule: Q01DX009 (ip), vehicle: saline with Tween-80
[11] = dose: 50.0 mg/kg/injection, schedule: Q01DX005 (ip), vehicle: Klucel (hydroxypropylcellulose) (HPC)
[12] = dose: 100.0 mg/kg/injection, schedule: Q01DX005 (ip), vehicle: Klucel (hydroxypropylcellulose) (HPC)
[13] = dose: 200.0 mg/kg/injection, schedule: Q01DX005 (ip), vehicle: Klucel (hydroxypropylcellulose) (HPC)
[14] = dose: 15.0 mg/kg/injection, schedule: Q01DX009 (ip), vehicle: saline
[15] = dose: 30.0 mg/kg/injection, schedule: Q01DX009 (ip), vehicle: saline
[16] = dose: 60.0 mg/kg/injection, schedule: Q01DX009 (ip), vehicle: saline

Compound: CCOC(=O)C1=C(O)C(=O)NC1c1ccccc1 (configuration not stated)
- T/C (dose: 15.0 mg/kg/injection, schedule: Q01DX005 (ip), vehicle: Klucel (hydroxypropylcellulose) (HPC)): 111 % of control
- T/C (dose: 30.0 mg/kg/injection, schedule: Q01DX005 (ip), vehicle: Klucel (hydroxypropylcellulose) (HPC)): 102 % of control
- T/C (dose: 60.0 mg/kg/injection, schedule: Q01DX005 (ip), vehicle: Klucel (hydroxypropylcellulose) (HPC)): 102 % of control and 107 % of control

Compound: O=C(CNC(=O)c1ccccc1)N/N=C/c1ccccc1O
- T/C (dose: 60.0 mg/kg/injection, schedule: Q01DX005 (ip), vehicle: saline with Tween-80): 100 % of control
- T/C (dose: 120.0 mg/kg/injection, schedule: Q01DX005 (ip), vehicle: saline with Tween-80): 101 % of control
- T/C (dose: 240.0 mg/kg/injection, schedule: Q01DX005 (ip), vehicle: saline with Tween-80): 100 % of control

Compound: CC1(CO)COC(c2ccc(Cl)cc2)N1 (configuration not stated)
- T/C (dose: 50.0 mg/kg/injection, schedule: Q01DX005 (ip), vehicle: acetone): 106 % of control
- T/C (dose: 100.0 mg/kg/injection, schedule: Q01DX005 (ip), vehicle: acetone): 106 % of control
- T/C (dose: 200.0 mg/kg/injection, schedule: Q01DX005 (ip), vehicle: acetone): 112 % of control

Compound: COC1NC(=O)Oc2ccccc21 (configuration not stated)
- T/C [1]: 109 % of control and 97 % of control
- T/C [2]: 108 % of control and 109 % of control
- T/C [3]: 114 % of control

Compound: COc1ccc2c(c1)C13C(=O)OC4(C)OC(C)(CC41)C3C2=O (configuration not stated)
- T/C (dose: 100.0 mg/kg/injection, schedule: Q01DX001 (ip), vehicle: Klucel (hydroxypropylcellulose) (HPC)): 98 % of control
- T/C (dose: 200.0 mg/kg/injection, schedule: Q01DX001 (ip), vehicle: Klucel (hydroxypropylcellulose) (HPC)): 104 % of control
- T/C (dose: 400.0 mg/kg/injection, schedule: Q01DX001 (ip), vehicle: Klucel (hydroxypropylcellulose) (HPC)): 95 % of control

Compound: O=C(Nc1ccc(Cl)cc1)N1c2ccccc2SC1c1ccco1 (configuration not stated)
- T/C [1]: 89 % of control
- T/C [2]: 88 % of control
- T/C [3]: 87 % of control

Compound: COc1c2ccncc2c(C)c2c1[nH]c1ccccc12
- T/C (dose: 6.25 mg/kg/injection, schedule: Q04DX002 (ip), vehicle: distilled water + Tween-80): 98 % of control
- T/C (dose: 12.5 mg/kg/injection, schedule: Q04DX002 (ip), vehicle: distilled water + Tween-80): 94 % of control
- T/C (dose: 25.0 mg/kg/injection, schedule: Q04DX002 (ip), vehicle: distilled water + Tween-80): 94 % of control
- T/C (dose: 50.0 mg/kg/injection, schedule: Q04DX002 (ip), vehicle: distilled water + Tween-80): 89 % of control
- T/C (dose: 100.0 mg/kg/injection, schedule: Q04DX002 (ip), vehicle: distilled water + Tween-80): 89 % of control
- T/C (dose: 200.0 mg/kg/injection, schedule: Q04DX002 (ip), vehicle: distilled water + Tween-80): 88 % of control

Compound: OC(Nc1ncccn1)C(F)(F)F (configuration not stated)
- T/C [4]: 92 % of control
- T/C [5]: 111 % of control
- T/C [6]: 120 % of control

Compound: C=CCS(=O)(=O)O
- T/C [7]: 100 % of control
- T/C [8]: 104 % of control
- T/C (dose: 400.0 mg/kg/injection, schedule: Q01DX009 (ip), vehicle: saline): 100 % of control

Compound: CCCCCCCCCCCCCCCCN(C)CCO
- T/C [9]: 104 % of control
- T/C [10]: 106 % of control
- T/C [4]: 99 % of control

Compound: C1CN(SSN2CCOCC2)CCO1
- T/C [9]: 113 % of control
- T/C [10]: 104 % of control
- T/C [4]: 100 % of control
- T/C [5]: 100 % of control

Compound: COC(=O)N1CCc2c([nH]oc2=O)C1
- T/C (dose: 50.0 mg/kg/injection, schedule: Q01DX009 (ip), vehicle: saline): 90 % of control
- T/C [7]: 88 % of control
- T/C [8]: 89 % of control

Compound: CCOC(=O)C[n+]1ccc2cc(OC)c(OC)cc2c1Cc1ccc(OC)c(OC)c1
- T/C [4]: 102 % of control
- T/C [5]: 90 % of control
- T/C [6]: 90 % of control

Compound: CC1CN(C(=O)/C=C/C(=O)OC2CCCCC2)CCN1C(=O)/C=C/C(=O)OC1CCCCC1 (configuration not stated)
- T/C [11]: 100 % of control
- T/C [12]: 100 % of control
- T/C [13]: 98 % of control

Compound: O=C1c2ccccc2C(=O)c2c1cccc2N1CCOCC1
- T/C (dose: 50.0 mg/kg/injection, schedule: Q01DX009 (ip), vehicle: Klucel (hydroxypropylcellulose) (HPC)): 99 % of control and 100 % of control
- T/C (dose: 100.0 mg/kg/injection, schedule: Q01DX009 (ip), vehicle: Klucel (hydroxypropylcellulose) (HPC)): 101 % of control
- T/C (dose: 200.0 mg/kg/injection, schedule: Q01DX009 (ip), vehicle: Klucel (hydroxypropylcellulose) (HPC)): 103 % of control and 94 % of control

Compound: C[N+](C)(CCCCCCOc1c(Br)cc(Br)cc1Br)Cc1ccc(Br)o1
- T/C (dose: 1.56 mg/kg/injection, schedule: Q01DX009 (ip), vehicle: Klucel (hydroxypropylcellulose) (HPC)): 104 % of control
- T/C (dose: 3.12 mg/kg/injection, schedule: Q01DX009 (ip), vehicle: Klucel (hydroxypropylcellulose) (HPC)): 113 % of control
- T/C (dose: 6.25 mg/kg/injection, schedule: Q01DX009 (ip), vehicle: Klucel (hydroxypropylcellulose) (HPC)): 93 % of control

Compound: Cc1cc(O)c(C(c2cccnc2)c2c(O)cc(C)[nH]c2=O)c(=O)[nH]1
- T/C [4]: 104 % of control
- T/C [5]: 98 % of control
- T/C [6]: 99 % of control

Compound: C=Cc1c(Cl)nc(C)c(C)c1-c1ccc(OC)c(OC)c1OCc1ccccc1
- T/C [11]: 92 % of control
- T/C [12]: 104 % of control
- T/C [13]: 91 % of control

Compound: CN=C1N[N+]2=CCCCC2S1 (configuration not stated)
- T/C (dose: 12.5 mg/kg/injection, schedule: Q04DX003 (ip), vehicle: saline): 102 % of control
- T/C [14]: 100 % of control and 101 % of control
- T/C (dose: 25.0 mg/kg/injection, schedule: Q04DX003 (ip), vehicle: saline): 104 % of control
- T/C [15]: 92 % of control and 97 % of control
- T/C (dose: 50.0 mg/kg/injection, schedule: Q04DX003 (ip), vehicle: saline): 97 % of control
- T/C [16]: 114 % of control and 96 % of control
- T/C (dose: 120.0 mg/kg/injection, schedule: Q01DX009 (ip), vehicle: saline): 120 % of control and 96 % of control

Compound: CCCCCCC1N=C(N)N=C(N)N1c1cccc(Cl)c1 (configuration not stated)
- T/C (dose: 12.5 mg/kg/injection, schedule: Q01DX005 (ip), vehicle: Klucel (hydroxypropylcellulose) (HPC)): 118 % of control
- T/C (dose: 25.0 mg/kg/injection, schedule: Q01DX005 (ip), vehicle: Klucel (hydroxypropylcellulose) (HPC)): 114 % of control

Compound: CCO/C(C)=N\c1nc(C)[nH]c1C(N)=O
- T/C (dose: 6.25 mg/kg/injection, schedule: Q01DX009 (ip), vehicle: saline with Tween-80): 120 % of control
- T/C [9]: 106 % of control
- T/C [10]: 87 % of control
- T/C [8]: 86 % of control

Compound: CCCCn1ccc(=O)[nH]c1=O
- T/C [11]: 93 % of control
- T/C [12]: 99 % of control
- T/C [13]: 101 % of control

Compound: COc1ccc2cc1Oc1ccc(cc1)CC1c3c(c(OC)c(OC)c(OC)c3Oc3cc4c(cc3OC)CCN(C)C4C2)CCN1C (configuration not stated)
- T/C [14]: 94 % of control
- T/C [15]: 94 % of control
- T/C [16]: 103 % of control

Compound: Nc1nc(=O)n(C2OC(CO)C(O)C2O)cc1F (configuration not stated)
- T/C (dose: 9.0 mg/kg/injection, schedule: Q01DX009 (ip), vehicle: saline sonified): 190 % of control
- T/C (dose: 9.0 mg/kg/injection, schedule: Q04DX003 (ip), vehicle: saline sonified): 154 % of control
- T/C (dose: 18.0 mg/kg/injection, schedule: Q01DX009 (ip), vehicle: saline sonified): 200 % of control
- T/C (dose: 18.0 mg/kg/injection, schedule: Q04DX003 (ip), vehicle: saline sonified): 162 % of control
- T/C (dose: 24.0 mg/kg/injection, schedule: Q04DX003 (ip), vehicle: saline with Tween-80): 181 % of control
- T/C (dose: 36.0 mg/kg/injection, schedule: Q01DX009 (ip), vehicle: saline sonified): 236 % of control
- T/C (dose: 36.0 mg/kg/injection, schedule: Q04DX003 (ip), vehicle: saline sonified): 162 % of control
- T/C (dose: 36.0 mg/kg/injection, schedule: Q04DX003 (ip), vehicle: saline with Tween-80): 172 % of control
- T/C (dose: 54.0 mg/kg/injection, schedule: Q04DX003 (ip), vehicle: saline with Tween-80): 186 % of control

Compound: COc1ccc(Cc2cc3c(cc2OCC(=O)NN)OCO3)cc1
- T/C [11]: 89 % of control
- T/C [12]: 88 % of control
- T/C [13]: 91 % of control

Compound: COc1cc(CC2C(CO)OC(=O)C2C(O)c2ccc3c(c2)OCO3)cc(OC)c1OC (configuration not stated)
- T/C (dose: 5.0 mg/kg/injection, schedule: Q04DX002 (ip), vehicle: saline with Tween-80): 104 % of control
- T/C (dose: 10.0 mg/kg/injection, schedule: Q04DX002 (ip), vehicle: saline with Tween-80): 104 % of control
- T/C (dose: 20.0 mg/kg/injection, schedule: Q04DX002 (ip), vehicle: saline with Tween-80): 102 % of control

Source: PubChem BioAssay AID330 (DTP/NCI, 2004)
